Source: patent US12239654B2, “Compounds and methods for treating neurological and cardiovascular conditions” (Astrocyte Pharmaceuticals, Inc., priority 2016, dated 2025)
Like-named read-outs stand apart in the source and are kept apart here. Marks after values point to notes of the source that are not given here.

Assays:
mice subjected to stroke = test: Photothrombosis-induced stroke in mice, TTC-stained brain infarction size; type: in vivo, C57Bl/6 mice; conditions: 24 hours
Protocol: Photothrombosis-induced Stroke: Photothrombosis was performed as described in Zheng et al 2010 (PloS One 5 (12): e14401). In brief, Rose Bengal is a fluorescent dye that when injected into the vasculature and excited, generates singlet oxygen that damages the endothelial wall and induces a local thrombosis (clot). Using this technique, mice were given a 0.1 mL tail-vein injection of sterilized Rose Bengal (RB, Sigma, U.S.A.) in artificial cerebral spinal fluid (aCSF). The RB concentration was 20 mg/mL. A cortical region was centered in the imaging field and illuminated with a green laser (543 nm, 5 mW) using a 0.8-NA 40× water-immersion objective (Nikon, Tokyo). The clot formation was monitored in real time until the targeted vessel or downstream capillaries were firmly occluded. Stable clots were subsequently identified by a non-fluorescent vessel segmentation ending with highly fluorescent regions. […] Treatments, MRS4322 (0.16 mg/kg; 0.5 μmol/kg) or MRS2365 (0.24 mg/kg; 0.5 μmol/kg) were introduced via intraperitoneal injections (i.p.). For experiments with A3 receptor antagonist MRS1523, mice were administered intraperitoneal injections (2 mg/kg) at the 0 and 2 hour timepoints to ensure receptor antagonism throughout the course of the study.
Animals and Photothrombosis-induced Stroke: Stroke was performed as described in Zheng et al 2010 (PloS One 5 (12): e14401). Female C57Bl/6 mice (4-6 months) were used in this study. From the methods of this manuscript: Mice were anesthetized at 3% isoflurane with 100% oxygen and subsequently maintained at 1% isoflurane through a nosecone. Depth of anesthesia was monitored and regulated according to vital signs, pinch withdrawal and eye blinks. Body temperature was maintained at 37° C. by a feedback-controlled heating pad (Gaymar T/Pump). Vital signs including oxygen saturation, respiratory rate, and heart rate were continuously monitored by using the MouseOx system (STARR Life Sciences). The hair on each mouse's head was trimmed and a small incision was made in the scalp to expose the skull. A custom-made stainless steel plate was glued to the skull with VetBond Tissue Adhesive (3M, St Paul, MN). A cranial thinned-skull imaging window was created over the right primary somatosensory cortex (˜1.5 mm posterior to Bregma and 2 mm lateral from midline) depending on the experiment. In brief, a large region of the skull was first thinned with the electric drill and then further thinned with a surgical blade. The final thickness of the thinned skull was approximately 50 μm. After the cranial imaging window was created, mice were transferred to microscope stage and used for photothrombosis or imaging experiments. For the repeat imaging experiments, the plate was carefully detached from the skull and the scalp was sutured (Ethicon 6-0 sild suture). After each experiment, the mice were either returned to cages until the next timepoint or sacrificed. All procedures were approved by the Institutional Animal Care and Use Committee (IACUC) at University of Texas Health Science Center at San Antonio. Thirty minutes following stroke or sham (uninjured), mice were treated with either vehicle (saline) or drugs (MRS4322, MRS2365, MRS5698 or Cl-IBMECA).
Post photothrombotic infarction evaluation. The size of cerebral infarcts was evaluated using 2,3,5-Triphenyltetrazolium chloride (TTC) staining as described in Zheng et al 2010 (PloS One 5 (12): e14401). In brief, RB-induced lesions in brain slices were stained with TTC. TTC is a colorless dye that stains healthy brain tissue red when reduced by the mitochondrial enzyme succinyl dehydrogenase (Bederson J B et al., 1986). The absence of staining in necrotic tissue is then used to define the area of a brain infarction. Mice were sacrificed by cervical dislocation, their brains removed and then placed in ice cold HBSS for 3 minutes. The brain was subsequently transferred to a brain mold (KOPF), sliced into 1 mm sections and immersed in 2% TTC (5 min) at 37° C. […]

[1] = Plasma binding determination by plasma ultrafiltration, mouse; type: in vitro ADME; conditions: mouse plasma, 1 μM
Protocol: (§1) Animals and Tissue Preparation: Plasma from male CD-1 mice was obtained from BioreclamationIVT (Westbury, NY) and stored at −80° C. until use. Male CD-1 mouse brains were obtained from BioreclamationIVT (Westbury, NY).
Plasma ultrafiltrate blank samples were prepared by thawing frozen plasma and then pre-warming plasma in a humidified 5% CO2 chamber at 37° C. for 60 minutes. Aliquots of 800 μL were transferred to Centrifree Centrifugal Filters (Ultracel regenerated cellulose (NMWL 30,000 amu) Lot R5JA31736) and centrifuged at 2900 RPM at 37° C. for 10 minutes; plasma water filtrates were collected and used in preparation of standards, blanks and QC standards.
Plasma samples were pre-warmed for 60 minutes in a humidified, 5% CO2 incubator maintained at 37° C. […] Spiked plasma samples were incubated on a rotary mixer in a humidified 5% CO2 chamber at 37° C. for a minimum of 60 minutes. After 60 minutes, three 800 μL aliquots of each sample were added to Centrifree centrifugal filters. The filters were subjected to centrifugation at 2900 rpm for 10 minutes at 37° C. Three 100 μL aliquots of residual plasma were collected along with ultrafiltrate for bioanalysis.
(§2) Plasma and brain concentrations of MRS4322 and MRS5698 in spiked plasma, brain homogenates and associated ultrafiltrates were determined by LC-MS/MS utilizing tolbutamide as an internal standard. […] The following tables outline the LC and MS/MS conditions employed (Tables 7 and 8).
(§3) For each tissue matrix, standard curves were created and LLOQ/ULOQ concentrations determined. The calibration range for the MRS4322 and MRS5698 plasma concentration standard curves was 400-1200 nM. The calibration range for MRS4322 and MRS5698 plasma ultrafiltrate standard curves was 100-1200 nM. The calibration range for MRS4322 brain homogenate and brain homogenate ultrafiltrate standard curves were 400-1200 nM and 100-1200 nM, respectively. The calibration range for MRS5698 brain homogenate and brain homogenate ultrafiltrate standard curves were 400-1200 nM and 1-500 nM, respectively.

[2] = Brain binding determination by brain homogenate ultrafiltration, mouse; type: in vitro ADME; conditions: for fraction unbound at 60 min, 1 μM: male, CD-1, mouse, brain homogenate, pH 7.4, mouse brain homogenate
Protocol: as §1
Brains were weighed and homogenized with 1:9 phosphate-buffered saline, pH 7.4 using an Omni tissue homogenizer. Brains from four mice were homogenized, pooled and mixed to form one sample.
Pooled homogenized brains were pre-warmed for 60 minutes in a humidified, 5% CO2 incubator maintained at 37° C. […] Spiked pooled brain homogenates were placed on a Nutator mixer in a humidified, 5% CO2 incubator at 37° C. for 60 minutes. After 60 minutes, three 800 μL aliquots of each sample were added to Centrifree centrifugal filters. The filters were subjected to centrifugation at 2900 rpm for 10 minutes at 37° C. Aliquots of residual brain homogenate and ultrafiltrate were collected for bioanalysis.
as §2, §3

Row | Structure (SMILES) | size of the brain infarction (TTC staining) (mice subjected to stroke; photothrombotic stroke mice, 100 ul of 100 uM ip within 30 minutes of clot formation, vs vehicle) | concentrations in the plasma ultrafiltrate [1] | fraction unbound at 60 min, 1 μM ([2]; 37° C., ultrafiltration, read-out: % Bound Mean (converted)) | fraction unbound at 60 min, 1 μM ([2]; 37° C., ultrafiltration, read-out: Fraction Unbound Mean) | concentrations in the brain homogenate ultrafiltrate ([2]; mouse brain homogenate, 1 μM) | % Bound Mean ([2]; mouse brain homogenate, 1 μM, 37° C., ultrafiltration) | size of brain infarctions in mice pretreated with A3 receptor antagonist MRS1523 (mice subjected to stroke; MRS1523 2 mg/kg ip at 0 and 2 hour, treatment within 30 minutes of clot formation)
1 | Nc1nc(Cl)nc2c1ncn2[C@H]1[C@H](O)[C@H](O)[C@]2(CO)C[C@H]12 [MRS1873] | significantly reduced | – | – | – | – | – | –
2 | CNC(=O)[C@@]12C[C@@H]1[C@@H](n1cnc3c(NCc4cccc(Cl)c4)nc(C#Cc4ccc(F)c(F)c4)nc31)[C@H](O)[C@@H]2O [MRS5698] | – | not detected | 0.0001 | < 0.000122 | not detected | >99.99* % | not reduced
